Source: ChEMBL document CHEMBL5325491, “Small-Molecule Hydrophobic Tagging: A Promising Strategy of Druglike Technology for Targeted Protein Degradation” (J Med Chem, 2023)
Blank lines part the entries; values can stand above or below the molecule they belong to. Starred links: 1 amine or outer side, 2 acyl side, 3 side chain; linkers in the order of their positions; H or OH if unused. Non-standard residues stand in square brackets, D forms with d. Residues, ends and D or L forms follow the SMILES beside them. *: point of attachment. Adamantane1carbonyl = O=C(C12CC3CC(CC(C3)C1)C2)*; X1 = O=C(C12CC3CC(CC(N[*:1])(C3)C1)C2)[*:2]

Assays:
[1] = system: KARPAS-422; experiment: Anticancer activity against EZH2 dependent human KARPAS-422 cells assessed as cell growth inhibition by MTT assay; format: functional
[2] = system: BT-549; experiment: Anticancer activity against EZH2 dependent human BT-549 cells assessed as cell growth inhibition by MTT assay; format: functional
[3] = system: SU-DHL-8; experiment: Anticancer activity against EZH2 dependent human SU-DHL-8 cells assessed as cell growth inhibition by MTT assay; format: functional
[4] = system: HCC1954; experiment: Anticancer activity against EZH2 dependent human HCC1954 cells assessed as cell growth inhibition by MTT assay; format: functional
[5] = system: MCF7; experiment: Anticancer activity against EZH2 dependent human MCF7 cells assessed as cell growth inhibition by MTT assay; format: functional
[6] = system: HCC70; experiment: Anticancer activity against EZH2 dependent human HCC70 cells assessed as cell growth inhibition by MTT assay; format: functional
[7] = system: HCC1187; experiment: Anticancer activity against EZH2 dependent human HCC1187 cells assessed as cell growth inhibition by MTT assay; format: functional
[8] = system: NCI-H3122; experiment: Anticancer activity against human NCI-H3122 cells xenografted in mouse assessed as tumor growth inhibition at 20 mg/kg, po administered once every two days for 3 weeks relative to control; format: functional; settings: NCI-H3122, 504 h, read-out: TGI
[9] = molecular target: ALK tyrosine kinase receptor (Homo sapiens, UniProt Q9UM73); experiment: Induction of ALK (unknown origin) degradation
[10] = molecular target: Microtubule-associated protein tau (Mus musculus) (UniProt P10637); experiment: Induction of tau degradation in mouse N2a cells at 150 uM measured after 24 hrs by Western blot analysis relative to control; format: cell-based
[11] = Antiproliferative activity against HER3 dependent human HCC827 Gefitinib-resistant 6 (GR6) cell assessed as cell viability by CellTiter-Glo Luminescent Assay; format: functional, cell-based
[12] = Antiproliferative activity against HER3 dependent human PC9 Gefitinib-resistant 4 (GR4) cell assessed as cell viability by CellTiter-Glo Luminescent Assay; format: functional, cell-based
[13] = system: OVCAR-8; experiment: Antiproliferative activity against HER3 dependent human OVCAR-8 cells assessed as cell viability by CellTiter-Glo Luminescent Assay; format: functional, cell-based
[14] = molecular target: TAR DNA-binding protein 43 (Mus musculus) (UniProt Q921F2); experiment: Induction of TDP-43 degradation in mouse N2a cells at 100 uM measured after 24 hrs by Western blot analysis relative to control; format: cell-based
[15] = molecular target: RAC-gamma serine/threonine-protein kinase (Homo sapiens, UniProt Q9Y243); experiment: Induction of Akt3 (unknown origin) degradation
[16] = Induction of Akt2 (unknown origin) degradation; parameters: species or system Homo sapiens
[17] = molecular target: RAC-alpha serine/threonine-protein kinase (Homo sapiens, UniProt P31749); experiment: Induction of Akt1 (unknown origin) degradation
[18] = system: PC-9; experiment: Anticancer activity against human PC-9 cells xenografted in NSG mouse assessed as tumor growth inhibition at 20 mg/kg, ip administered once every two days for 14 days relative to control; format: functional; settings: PC-9, 336 h, time 14 day, read-out: TGI
[19] = molecular target: T1, Glutathione S-transferase A1 (Homo sapiens) (UniProt P08263); experiment: Induction of GSTAlpha1 degradation in human HeLa cells at 80 uM measured after 4 hrs relative to control; format: cell-based
T1 sequence (whole entry): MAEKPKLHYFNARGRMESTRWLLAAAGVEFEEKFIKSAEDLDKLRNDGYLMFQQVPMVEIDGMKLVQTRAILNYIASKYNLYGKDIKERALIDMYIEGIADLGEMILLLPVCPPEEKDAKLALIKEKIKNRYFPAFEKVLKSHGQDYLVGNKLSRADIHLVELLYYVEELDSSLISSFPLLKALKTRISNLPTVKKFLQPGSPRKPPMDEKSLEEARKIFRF

[20] = molecular target: T1, Glutathione S-transferase A1 (Homo sapiens); experiment: Induction of GSTAlpha1 degradation in […] cells at 40 uM measured after 4 hrs; format: cell-based
[21] = molecular target: T2, Dihydrofolate reductase (Escherichia coli) (UniProt P0ABQ4); experiment: Induction of Escherichia coli DHFR degradation in […] cells at 80 uM measured after 4 hrs; format: cell-based
T2 sequence (whole entry): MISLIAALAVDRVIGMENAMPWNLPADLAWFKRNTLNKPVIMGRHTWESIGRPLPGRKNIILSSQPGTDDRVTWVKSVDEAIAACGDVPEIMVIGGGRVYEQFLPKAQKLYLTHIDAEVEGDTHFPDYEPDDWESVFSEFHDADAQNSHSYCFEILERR

Chain of ALK tyrosine kinase receptor (Q9UM73 whole entry): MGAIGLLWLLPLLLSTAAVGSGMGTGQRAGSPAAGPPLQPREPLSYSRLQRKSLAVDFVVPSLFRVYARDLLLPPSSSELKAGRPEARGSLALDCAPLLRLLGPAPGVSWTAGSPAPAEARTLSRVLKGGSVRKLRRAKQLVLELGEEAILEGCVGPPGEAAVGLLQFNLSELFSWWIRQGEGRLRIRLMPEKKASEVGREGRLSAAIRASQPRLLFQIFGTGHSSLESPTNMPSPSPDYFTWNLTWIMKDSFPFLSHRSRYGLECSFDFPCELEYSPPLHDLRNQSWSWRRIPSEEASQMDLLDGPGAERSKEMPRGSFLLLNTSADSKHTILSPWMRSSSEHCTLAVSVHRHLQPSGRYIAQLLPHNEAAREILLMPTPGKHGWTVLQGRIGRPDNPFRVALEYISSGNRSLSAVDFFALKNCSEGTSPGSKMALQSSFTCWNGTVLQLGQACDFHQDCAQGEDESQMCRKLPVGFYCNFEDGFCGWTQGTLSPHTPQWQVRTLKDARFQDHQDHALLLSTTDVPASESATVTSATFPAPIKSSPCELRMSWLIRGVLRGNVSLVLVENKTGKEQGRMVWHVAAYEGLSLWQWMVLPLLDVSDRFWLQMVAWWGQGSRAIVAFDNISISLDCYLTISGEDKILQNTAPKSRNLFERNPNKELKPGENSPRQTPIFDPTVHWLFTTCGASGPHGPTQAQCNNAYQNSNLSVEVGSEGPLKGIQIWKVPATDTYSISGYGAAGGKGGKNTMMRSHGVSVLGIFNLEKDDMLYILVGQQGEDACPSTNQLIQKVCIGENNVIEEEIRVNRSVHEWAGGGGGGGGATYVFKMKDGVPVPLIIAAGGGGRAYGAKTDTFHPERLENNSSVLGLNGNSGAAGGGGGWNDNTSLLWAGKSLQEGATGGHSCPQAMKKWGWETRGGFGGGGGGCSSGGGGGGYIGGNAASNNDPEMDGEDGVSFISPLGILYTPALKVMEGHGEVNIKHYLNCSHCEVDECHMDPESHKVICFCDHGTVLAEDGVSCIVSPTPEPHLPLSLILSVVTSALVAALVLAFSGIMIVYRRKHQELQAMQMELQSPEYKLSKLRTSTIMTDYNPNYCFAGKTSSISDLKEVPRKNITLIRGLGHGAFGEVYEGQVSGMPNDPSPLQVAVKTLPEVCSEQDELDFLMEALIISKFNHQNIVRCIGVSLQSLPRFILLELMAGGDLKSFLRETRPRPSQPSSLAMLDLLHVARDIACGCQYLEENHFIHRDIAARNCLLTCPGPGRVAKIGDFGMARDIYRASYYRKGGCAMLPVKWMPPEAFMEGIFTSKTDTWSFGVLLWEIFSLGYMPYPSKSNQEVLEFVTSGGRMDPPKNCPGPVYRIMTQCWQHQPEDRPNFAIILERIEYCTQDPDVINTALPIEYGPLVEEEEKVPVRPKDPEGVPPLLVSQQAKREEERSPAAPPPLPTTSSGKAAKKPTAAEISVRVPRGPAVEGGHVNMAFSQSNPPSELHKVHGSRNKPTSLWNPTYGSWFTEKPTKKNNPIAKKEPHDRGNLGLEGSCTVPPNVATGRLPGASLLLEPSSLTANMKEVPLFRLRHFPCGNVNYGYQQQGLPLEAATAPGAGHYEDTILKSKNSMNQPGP
Chain of RAC-gamma serine/threonine-protein kinase (Q9Y243 whole entry): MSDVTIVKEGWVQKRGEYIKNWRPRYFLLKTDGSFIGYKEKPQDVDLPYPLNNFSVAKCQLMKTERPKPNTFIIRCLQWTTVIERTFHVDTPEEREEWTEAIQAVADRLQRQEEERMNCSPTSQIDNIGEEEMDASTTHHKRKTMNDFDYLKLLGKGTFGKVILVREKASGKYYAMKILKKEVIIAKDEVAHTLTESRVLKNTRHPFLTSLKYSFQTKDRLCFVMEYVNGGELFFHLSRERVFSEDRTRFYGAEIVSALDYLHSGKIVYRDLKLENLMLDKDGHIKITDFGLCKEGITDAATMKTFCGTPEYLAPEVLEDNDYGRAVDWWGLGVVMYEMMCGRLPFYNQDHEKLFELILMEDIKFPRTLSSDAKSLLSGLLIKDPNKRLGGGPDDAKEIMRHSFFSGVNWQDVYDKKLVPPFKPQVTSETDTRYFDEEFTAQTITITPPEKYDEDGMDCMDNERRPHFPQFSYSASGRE
Chain of Microtubule-associated protein tau (Mus musculus) (P10637 whole entry): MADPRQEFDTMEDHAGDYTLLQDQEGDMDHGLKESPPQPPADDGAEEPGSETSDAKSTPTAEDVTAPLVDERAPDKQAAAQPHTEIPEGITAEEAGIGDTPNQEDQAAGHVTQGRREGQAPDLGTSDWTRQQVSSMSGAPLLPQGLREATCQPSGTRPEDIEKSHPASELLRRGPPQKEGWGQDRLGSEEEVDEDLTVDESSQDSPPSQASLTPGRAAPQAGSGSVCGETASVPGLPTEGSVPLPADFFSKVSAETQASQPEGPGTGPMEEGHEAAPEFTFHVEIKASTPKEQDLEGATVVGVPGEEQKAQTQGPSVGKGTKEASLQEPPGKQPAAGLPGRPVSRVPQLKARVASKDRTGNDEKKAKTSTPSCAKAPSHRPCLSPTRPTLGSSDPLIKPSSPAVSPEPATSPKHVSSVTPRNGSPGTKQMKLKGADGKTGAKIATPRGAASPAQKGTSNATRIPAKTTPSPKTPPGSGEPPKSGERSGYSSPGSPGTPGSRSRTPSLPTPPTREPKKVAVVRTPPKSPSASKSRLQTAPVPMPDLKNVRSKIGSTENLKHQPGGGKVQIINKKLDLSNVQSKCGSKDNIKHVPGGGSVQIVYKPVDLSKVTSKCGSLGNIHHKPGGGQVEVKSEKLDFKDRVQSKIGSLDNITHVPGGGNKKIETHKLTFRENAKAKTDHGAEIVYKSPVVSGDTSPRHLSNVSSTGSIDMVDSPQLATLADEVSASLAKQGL
Chain of TAR DNA-binding protein 43 (Mus musculus) (Q921F2 whole entry): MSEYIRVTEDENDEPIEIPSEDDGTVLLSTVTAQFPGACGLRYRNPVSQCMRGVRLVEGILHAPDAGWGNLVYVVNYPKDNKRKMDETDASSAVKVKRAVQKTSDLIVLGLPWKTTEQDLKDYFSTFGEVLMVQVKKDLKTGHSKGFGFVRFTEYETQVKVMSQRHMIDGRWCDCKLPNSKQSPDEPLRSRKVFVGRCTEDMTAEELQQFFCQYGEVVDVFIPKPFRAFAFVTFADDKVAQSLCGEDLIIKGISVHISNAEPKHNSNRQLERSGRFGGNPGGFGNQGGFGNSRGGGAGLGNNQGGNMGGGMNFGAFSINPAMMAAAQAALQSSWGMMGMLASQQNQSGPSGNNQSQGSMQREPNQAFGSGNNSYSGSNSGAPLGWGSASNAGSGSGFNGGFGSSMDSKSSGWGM
Chain of RAC-alpha serine/threonine-protein kinase (P31749 whole entry): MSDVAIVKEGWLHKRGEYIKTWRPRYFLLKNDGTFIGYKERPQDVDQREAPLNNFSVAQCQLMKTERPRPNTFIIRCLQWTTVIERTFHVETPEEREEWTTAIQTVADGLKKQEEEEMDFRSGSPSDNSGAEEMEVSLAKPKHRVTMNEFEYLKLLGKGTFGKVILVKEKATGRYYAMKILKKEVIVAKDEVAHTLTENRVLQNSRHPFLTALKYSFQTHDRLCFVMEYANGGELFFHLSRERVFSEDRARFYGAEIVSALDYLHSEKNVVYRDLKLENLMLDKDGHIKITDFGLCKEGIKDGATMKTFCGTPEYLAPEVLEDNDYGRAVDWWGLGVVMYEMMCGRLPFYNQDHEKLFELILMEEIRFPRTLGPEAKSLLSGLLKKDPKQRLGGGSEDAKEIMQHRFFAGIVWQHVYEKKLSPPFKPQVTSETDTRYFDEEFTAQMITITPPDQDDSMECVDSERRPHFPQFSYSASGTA

Structure (SMILES): Cc1cc(C)c(CNC(=O)c2cc(-c3ccc(N4CCN(CCNC(=O)CC56CC7CC(CC(C7)C5)C6)CC4)nc3)cc3c2cnn3C(C)C)c(=O)[nH]1
GI50 [1]: 1.1 µM
GI50 [2]: 1.1 µM
GI50 [3]: 1.1 µM
GI50 [4]: 1.1 µM
GI50 [5]: 1.1 µM
GI50 [6]: 1.1 µM
GI50 [7]: 1.1 µM

Structure (SMILES): C[C@H](NC(=O)[C@H](CC(=O)O)NC(=O)[C@H](CCC(N)=O)NC(=O)[C@H](Cc1ccc(O)cc1)NC(=O)[C@H](CCC(N)=O)NC(=O)[C@H](CCC(N)=O)NC(=O)[C@H](Cc1ccc(O)cc1)NC(=O)C12CC3CC(CC(C3)C1)C2)C(=O)N[C@H](C(=O)N[C@@H](C)C(=O)N[C@@H](CC(=O)O)C(=O)N[C@@H](CCC(=O)O)C(=O)N[C@@H](CCC(N)=O)C(=O)NCC(=O)N[C@H](CCCNC(=N)N)C(=O)N[C@H](CCCNC(=N)N)C(=O)N[C@H](CCCNC(=N)N)C(=O)N[C@H](CCCNC(=N)N)C(=O)N[C@H](CCCNC(=N)N)C(=O)N[C@H](CCCNC(=N)N)C(=O)N[C@H](CCCNC(=N)N)C(=O)N[C@H](CCCNC(=N)N)C(N)=O)[C@@H](C)O
Activity [10]: 88%

Structure (SMILES): CC[C@H](C)[C@H](NC(=O)CNC(=O)[C@H](CCCCN)NC(=O)[C@@H](NC(=O)[C@@H](NC(=O)[C@H](CC(C)C)NC(=O)[C@H](CC(=O)O)NC(=O)[C@H](CCC(=O)O)NC(=O)[C@H](CO)NC(=O)CNC(=O)[C@H](CO)NC(=O)CNC(=O)[C@H](CCCCN)NC(=O)C12CC3CC(CC(NC(=O)C45CC6CC(CC(C6)C4)C5)(C3)C1)C2)[C@@H](C)CC)[C@@H](C)CC)C(=O)N[C@@H](CO)C(=O)N[C@H](C(=O)NCC(=O)N[C@@H](CCCNC(=N)N)C(=O)N[C@@H](CCCCN)C(=O)N[C@@H](CCCCN)C(=O)N[C@@H](CCCNC(=N)N)C(=O)N[C@@H](CCCNC(=N)N)C(=O)N[C@@H](CCC(N)=O)C(=O)N[C@@H](CCCNC(=N)N)C(=O)N[C@@H](CCCNC(=N)N)C(=O)N[C@@H](CCCNC(=N)N)C(N)=O)C(C)C (Adamantane1carbonyl-[X1]KGSGSEDLIIKGISVGRKKRRQRRR-NH2)
Activity [14]: 80%

Structure (SMILES): C=C(CC)C(=O)c1ccc(OCC(=O)O)c(Cl)c1Cl
Activity [19]: 75%

Structure (SMILES): COc1cc(Cc2cnc(N)nc2N)cc(OC)c1OCC(=O)NCCCCCCNC(=O)[C@@H](CCCN/C(=N\C(=O)OC(C)(C)C)NC(=O)OC(C)(C)C)NC(=O)OC(C)(C)C
Activity [20]: 80%
Activity [21]: 60%

The next lines start with results.

DC50 [9]: 0.134 µM
Structure (SMILES): CCc1cc2c(cc1N1CCN(CCCCC(=O)NCC3CC4C=CC3C4)CC1)C(C)(C)c1[nH]c3cc(C#N)ccc3c1C2=O (stereo not drawn)
inhibition in vivo at 20 mg/kg [8]: 58%

DC50 [9]: 0.089 µM
Structure (SMILES): COc1cc(N2CCN(CC(=O)NCC3CC4C=CC3C4)CC2)ccc1Nc1ncc(Cl)c(Nc2ccccc2P(C)(C)=O)n1 (stereo not drawn)

EC50 [13]: 0.8 µM
Structure (SMILES): C=CC(=O)Nc1cc(-c2nn(C3CCN(CCNC(=O)[C@H](C)CCC45CC6CC(CC(C6)C4)C5)CC3)c3ncnc(N)c23)ccc1Oc1ccccc1
EC50 [11]: 0.8 µM
EC50 [12]: 0.8 µM

DC50 [15]: 0.013 µM
DC50 [16]: > 1 µM
DC50 [17]: > 1 µM
Structure (SMILES): COc1cc(N2CCN(CCCCCCCCCCCCNC(=O)CC34CC5CC(CC(C5)C3)C4)CC2)ccc1Nc1ncc2c(C)cc(=O)n(-c3cccc(NC(=O)C4CC4)c3)c2n1
inhibition in vivo at 20 mg/kg [18]: 75%

DC50 [9]: 0.314 µM
Structure (SMILES): Cc1cc(Nc2ncc(Cl)c(Nc3ccccc3S(=O)(=O)C(C)C)n2)c(OC(C)C)cc1C1CCN(CC(=O)NCC2CC3C=CC2C3)CC1 (stereo not drawn)
